Literature values in PubChem BioAssay AID1259410 (Chemical Carcinogenesis Research Information System (CCRIS), 2018).

Test system: rodent tumor promotion studies, tumor incidence
Assay: CCRIS tumor promotion studies

C[C@H](N)[C@H](O)c1cccc(O)c1
outcome (Carcinogen: N-METHYL-N'-NITRO-N-NITROSOGUANADINE, 70-25-7, Doses [Carcinogen]: 25 UG/ML IN DRINKING WATER FOR 20 WK, Doses [Promoter]: 0, 5 MG/KG BW IN OLIVE OIL 1/2 D BEGINNING POST CARCINOGEN TREATMENT (STUDY DURATION: 52 WK), Route [Carcinogen]: ORAL, Route [Promoter]: SUBCUTANEOUS, Species: RAT, Strain/Sex: WISTAR/MALE): stomach: adenocarcinoma

CCCCCCCCCCCC1(CCCC(=O)OC2C(C)C3(O)C(C=C(CO)CC4(O)C(=O)C(C)=CC43)C3C(C)(C)C23OC(C)=O)OCC(C)(C)N1[O] (centres undefined)
outcome (Carcinogen: 7,12-DIMETHYLBENZ[A]ANTHRACENE, 57-97-6, Doses [Carcinogen]: 100 NMOL ONCE, Doses [Promoter]: 0, 5 NMOL 2/WK FOR 24 WK BEGINNING 1 WK POST CARCINOGEN DOSE (STUDY DURATION: 25 WK), Route [Carcinogen]: DERMAL, Route [Promoter]: DERMAL, Species: MOUSE, Strain/Sex: NMRI/FEMALE): skin: tumor

CC(=O)OCC(CO)OC(C)=O (centres undefined)
outcome (Carcinogen: 4-Nitroquinoline 1-oxide, 56-57-5, Doses [Carcinogen]: 10 ppm in drinking water from wks 0-10, study duration 35 wk, Doses [Promoter]: 0, 2.75%, 5.5%, 11% in diet from wks 11-35, study duration 35 wks, Doses [Promoter]: 0, 2.75%, 5.5%, 11% in diet from wks 11-35, study duration 35 wks, Route [Carcinogen]: Oral, Route [Promoter]: Oral, Species: Rat, Strain/Sex: Sprague-Dawley/Male (30/Group)): tongue: squamous cell papillomas and carcinomas; oral cavity: squamous cell papi
outcome (Carcinogen: 7,12-Dimethylbenz(a)anthracene, 57-97-6, Doses [Carcinogen]: 100 ug in 100 ul acetone once at 6 wk of age, Doses [Promoter]: 0, 12, 30, 75 mg, 5 d/wk beginning 1 wk after carcinogen administration for 35 wk, study duration 36 wk, Route [Carcinogen]: Dermal, Route [Promoter]: Dermal, Species: Mouse, Strain/Sex: ICR/Female): skin: papillomas
outcome (Carcinogen: 7,12-Dimethylbenz(a)anthracene, 57-97-6, Doses [Carcinogen]: 100 ug in 100 ul acetone once at 6 wk of age, Doses [Promoter]: 0, 30, 75 mg, twice daily, 5 d/wk beginning 1 wk after carcinogen administration for 35 wk, study duration 36 wk, Route [Carcinogen]: Dermal, Route [Promoter]: Dermal, Species: Mouse, Strain/Sex: ICR/Female): skin: papillomas and squamous cell carcinomas

O=NN1CCC[C@H]1c1cccnc1
outcome (Carcinogen: Diethylnitrosamine, 55-18-5, Doses [Carcinogen]: 40 mg/l for 4 consecutive d/wk for 180 days, study duration 180 d, Doses [Promoter]: 30 mg/l, 3 d /wk for 180 d, study duration 180 d, Doses [Promoter]: 30 mg/l, 3 d /wk for 180 d, study duration 180 d, Route [Carcinogen]: Oral (drinking water), Route [Promoter]: Oral (drinking water), Species: Mouse, Strain/Sex: CF1/Female (16, 46/Group)): stomach: squamous cell carcinoma (33% vs 22%); adenocarcinoma (17% vs 15%); both

CC(N)Cc1ccccc1 (centres undefined)
outcome (Carcinogen: BITTNER MAMMARY TUMOR VIRUS, Doses [Promoter]: 0, 0.4 MG/KG/D IN 1 ML/KG OF 0.9% SALINE FOR DURATION OF STUDY (STUDY DURATION: 730 D), Route [Promoter]: SUBCUTANEOUS, Species: MOUSE, Strain/Sex: C3H/FEMALE): mammary gland: tumor

O=C1C2(Cl)C3(Cl)C4(Cl)C(Cl)(Cl)C5(Cl)C3(Cl)C1(Cl)C5(Cl)C24Cl (centres undefined)
outcome (Carcinogen: DIETHYLNITROSAMINE, 55-18-5, Doses [Carcinogen]: 20 MG/KG IN WATER ONCE, Doses [Promoter]: 0, 9 MG/KG 2/WK FOR 27 WK BEGINNING 10 D POST CARCINOGEN DOSE (STUDY DURATION: 30 WK), Route [Carcinogen]: GAVAGE, Route [Promoter]: SUBCUTANEOUS, Species: RAT, Strain/Sex: SPRAGUE-DAWLEY/FEMALE): liver: hepatocellular carcinoma

O=C(OO)c1cccc(Cl)c1
outcome (Carcinogen: 7,12-DIMETHYLBENZ(A)ANTHRACENE, Doses [Carcinogen]: TOP, Route [Carcinogen]: DERMAL, Route [Promoter]: DERMAL, Species: MOUSE, Strain/Sex: FEMALE): integumentary system (skin)

CC(=O)O[C@@]12[C@H](OC(=O)/C=C(C)/C=C/C=C(C)/C=C/C3=C(C)CCCC3(C)C)[C@@H](C)[C@@]3(O)[C@@H](C=C(CO)C[C@]4(O)C(=O)C(C)=C[C@@H]34)[C@@H]1C2(C)C
outcome (Carcinogen: 7,12-DIMETHYLBENZ[A]ANTHRACENE, 57-97-6, Doses [Carcinogen]: 10 NMOL ONCE, Doses [Promoter]: 0, 2.5, 5 UG IN 0.2 ML ACETONE 2/WK FOR 21 WK BEGINNING 1 WK POST CARCINOGEN (STUDY DURATION: 21 WK), Doses [Promoter]: 0, 2.5, 5 UG IN 0.2 ML ACETONE 2/WK FOR 21 WK BEGINNING 1 WK POST CARCINOGEN (STUDY DURATION: 21 WK), Route [Carcinogen]: DERMAL, Route [Promoter]: DERMAL, Species: MOUSE, Strain/Sex: SENCAR/FEMALE): skin: papilloma

C[C@]12CCC(=O)C=C1CC[C@@H]1[C@@H]2CC[C@@]2(C)[C@H]1CC[C@]2(C)O
outcome (Carcinogen: N-BIS(2-HYDROXYPROPYL)NITROSAMINE, 53609-64-6, Doses [Carcinogen]: 210 MG/100 G BW 1/WK FOR 2 WK, Doses [Promoter]: 0, 300 PPM IN DIET OF CASTRATED RATS BEGINNING POST CARCINOGEN TREATMENT AND CONTINUING FOR 28 WK (STUDY DURATION: 30 WK, Route [Carcinogen]: INTRAPERITONEAL, Route [Promoter]: ORAL, Species: RAT, Strain/Sex: WISTAR/MALE): thyroid gland: adenoma or carcinoma

Clc1c(Cl)c(Cl)c(Cl)c(Cl)c1Cl
outcome (Carcinogen: DIETHYLNITROSAMINE, 55-18-5, Doses [Carcinogen]: 0.015% IN DRINKING WATER FOR 3 WK, Doses [Promoter]: 0, 0.02% IN DIET (10.5 MG/KG/D) FOR 30 WK BEGINNING 2 WK AFTER LAST CARCINOGEN DOSE (STUDY DURATION: 35 WK), Route [Carcinogen]: ORAL, Route [Promoter]: ORAL, Species: RAT, Strain/Sex: F344/MALE): liver: hepatocellular carcinoma
outcome (Carcinogen: DIETHYLNITROSAMINE, 55-18-5, Doses [Carcinogen]: 0.015% IN DRINKING WATER FOR 3 WK, Doses [Promoter]: 0, 0.02% IN DIET (12 MG/KG/D) FOR 30 WK BEGINNING 2 WK AFTER LAST CARCINOGEN DOSE (STUDY DURATION: 35 WK), Route [Carcinogen]: ORAL, Route [Promoter]: ORAL, Species: RAT, Strain/Sex: F344/FEMALE): liver: hepatocellular carcinoma

Oc1ccc(O)cc1
outcome (Carcinogen: N-ETHYL-N-HYDROXYETHYLNITROSAMINE, 13147-25-6, Doses [Carcinogen]: 0.1% IN DRINKING WATER FOR 3 WK, Doses [Promoter]: 0, 0.8% IN DIET FOR 36 WK BEGINNING 1 WK POST CARCINOGEN TREATMENT (STUDY DURATION: 40 WK), Route [Carcinogen]: ORAL, Route [Promoter]: ORAL, Species: RAT, Strain/Sex: WISTAR/MALE): kidney: microadenoma, renal cell tumor
outcome (Carcinogen: N-METHYL-N-NITROSOUREA [684-93-5], Doses [Carcinogen]: 20 MG/KG BW ONCE ON DAY 9 AFTER BIRTH (STUDY DURATION: 28 WK), Doses [Promoter]: 0.8% IN DIET FOR 26 WK BEGINNING 2 WK POST LAST CARCINOGEN DOSE (STUDY DURATION: 28 WK), Route [Carcinogen]: INTRAPERITONEAL, Route [Promoter]: ORAL, Species: MOUSE, Strain/Sex: ICR (CD-1)/FEMALE): lung: adenoma
outcome (Carcinogen: N-METHYL-N-NITROSOUREA [684-93-5], Doses [Carcinogen]: 20 MG/KG BW ONCE ON DAY 9 AFTER BIRTH (STUDY DURATION: 28 WK), Doses [Promoter]: 0.8% IN DIET FOR 26 WK BEGINNING 2 WK POST LAST CARCINOGEN DOSE (STUDY DURATION: 28 WK), Route [Carcinogen]: INTRAPERITONEAL, Route [Promoter]: ORAL, Species: MOUSE, Strain/Sex: ICR (CD-1)/MALE): lung: carcinoma

O=C1NC(=O)C(c2ccccc2)(c2ccccc2)N1
outcome (Carcinogen: N,N-DIETHYLNITROSAMINE, 55-18-5, Doses [Carcinogen]: 75 MG/KG IN SALINE ONCE AT 5 WK OF AGE, Doses [Promoter]: 0, 500, 1500 PPM IN DIET FOR 45 WK BEGINNING 2 WK POST CARCINOGEN TREATMENT (STUDY DURATION: 47 WK), Doses [Promoter]: 0, 500, 1500 PPM IN DIET FOR 45 WK BEGINNING 2 WK POST CARCINOGEN TREATMENT (STUDY DURATION: 47 WK), Route [Carcinogen]: INTRAPERITONEAL, Route [Promoter]: ORAL, Species: RAT, Strain/Sex: F344/MALE): liver: hepatocellular adenoma
outcome (Carcinogen: N,N-DIETHYLNITROSAMINE, 55-18-5, Doses [Carcinogen]: 75 MG/KG IN SALINE ONCE AT 5 WK OF AGE, Doses [Promoter]: 0, 500, 1500 PPM IN DIET FOR 46-72 WK BEGINNING 2 WK POST CARCINOGEN TREATMENT (STUDY DURATION: 46-72 WK), Doses [Promoter]: 0, 500, 1500 PPM IN DIET FOR 46-72 WK BEGINNING 2 WK POST CARCINOGEN TREATMENT (STUDY DURATION: 46-72 WK), Route [Carcinogen]: INTRAPERITONEAL, Route [Promoter]: ORAL, Species: RAT, Strain/Sex: F344/MALE): liver: hepatocellular adenoma
outcome (Carcinogen: N-NITROSODIETHYLAMINE, 55-18-5, Doses [Carcinogen]: 90 MG/KG BW IN TRICAPRYLIN ONCE, Doses [Promoter]: 0, 500 PPM IN DIET FOR 53 WK BEGINNING 2 WK POST CARCINOGEN DOSE (STUDY DURATION: 55 WK), Route [Carcinogen]: INTRAPERITONEAL, Route [Promoter]: ORAL, Species: MOUSE, Strain/Sex: D2B6F1/MALE): liver: tumor
